Laboratory results: US11547681B2, “N-acylethanolamide derivatives and uses thereof” (ELIEM THERAPEUTICS, INC., priority 2016, dated 2023)

Experiments:
in vitro [1] = settings: both, human
Description: (§1) The reaction mixture, minus cofactors, was prepared as described below. The test article was added into the reaction mixture at a final concentration of 1 μM. […] An aliquot of the reaction mixture (without cofactor cocktail) was equilibrated in a shaking water bath at 37° C. for 3 minutes. The reaction was initiated by the addition of cofactor cocktail, and the mixture was incubated in a shaking water bath at 37° C. Aliquots (100 μL) were withdrawn at 0, 10, 20, 30, and 60 minutes. All samples were immediately combined with 400 uL of icecold 50/50 acetonitrile/H2O containing 0.1% formic acid and internal standard to terminate the reaction. The samples were then mixed and centrifuged to precipitate proteins. Calibration standards were prepared in matched matrix. All samples and standards were assayed by LC-MS/MS using electrospray ionization for both the dosed prodrug I-9 and the expected drug (PEA). Analytical conditions are outlined in Appendix 4-1. The test article concentration at each time point was compared to the test article concentration at time 0 to determine the percent remaining at each time point. Half-lives were calculated using GraphPad software, fitting to single-phase exponential decay equation.
(§2) Reaction mixture, minus cofactors, was prepared as described below. Test article was added into the reaction mixture at a final concentration of 1 μM. […] An aliquot of the reaction mixture (without cofactor cocktail) was equilibrated in a shaking water bath at 37° C. for 3 minutes. The reaction was initiated by the addition of cofactor cocktail, and the mixture was incubated in a shaking water bath at 37° C. Aliquots (100 μL) were withdrawn at 0, 10, 20, 30, and 60 minutes. Test article samples were immediately combined with 300 μL of ice-cold acetonitrile containing 1% formic acid. Control samples were immediately combined with 400 μL of ice-cold 50/50 acetonitrile (ACN)/dH2O containing 0.1% formic acid and internal standard to terminate the reaction. Samples were then mixed and centrifuged to precipitate proteins. Calibration standards were prepared in matched matrix. Samples and standards were assayed by LC-MS/MS using electrospray ionization for both the dosed prodrug and the expected drug (PEA). Analytical conditions are outlined in Appendix 8-1. Test article concentration at each time point was compared to test article concentration at time 0 to determine the percent remaining at each time point. Halflives were calculated using GraphPad software, fitting to a single-phase exponential decay equation.
as §2, with “for 5” for “for 3”, “minutes. Reaction” for “minutes. The reaction”, “and” for “and the”, “both” for “both the”, “Appendix 10-1.” for “Appendix 8-1.”
(§3) Reaction mixture, minus cofactors, was prepared as described below.

in vitro [2] = settings: male, CD-1, mouse
Description: as §2
as §2, with “for 5” for “for 3”, “minutes. Reaction” for “minutes. The reaction”, “and” for “and the”, “both” for “both the”, “Appendix 10-1.” for “Appendix 8-1.”
(§4) Reaction mixture, minus cofactors, was prepared as described below. Test article was added into the reaction mixture at a final concentration of 1 μM. […] An aliquot of the reaction mixture (without cofactor cocktail) was equilibrated in a shaking water bath at 37° C. for 3 minutes. Reaction was initiated by the addition of cofactor cocktail, and the mixture was incubated in a shaking water bath at 37° C. Aliquots (100 μL) were withdrawn at 0, 10, 20, 30, and 60 minutes. Test article samples were immediately combined with 300 μL of ice-cold acetonitrile containing 1% formic acid. Control samples were immediately combined with 400 μL of ice-cold 50/50 acetonitrile (ACN)/dH2O containing 0.1% formic acid and internal standard to terminate the reaction. Samples were then mixed and centrifuged to precipitate proteins. Calibration standards were prepared in matched matrix. Samples and standards were assayed by LC-MS/MS using electrospray ionization for both dosed prodrug and expected drug (PEA). Analytical conditions are outlined in Appendix 13-1. Test article concentration at each time point was compared to test article concentration at time 0 to determine the percent remaining at each time point. Halflives were calculated using GraphPad software, fitting to a single-phase exponential decay equation.

in vitro [3] = settings: male, Sprague-Dawley, rat
Description: as §1, §2
as §4, with “for 5” for “for 3”, “and” for “and the”, “Appendix 10-1.” for “Appendix 13-1.”
as §3

in vitro [4] = settings: male, Beagle, dog
Description: as §2
as §4, with “for 5” for “for 3”, “and” for “and the”, “Appendix 10-1.” for “Appendix 13-1.”
as §4

[5] = s9, CLint (mL/min/mg protein), calculated value in parentheses
[6] = s9, Half-life (min), calculated half-life in parentheses

CCCCCCCCCCCCCCCC(=O)NCCOC(=O)CCC(=O)OC(COC(=O)CCC)COC(=O)CCC [Compound I-16]
Measured concentration of PEA (analyte) (in vitro [1]; 0 min, 1 μM): 0 µM
Measured concentration of PEA (analyte) (in vitro [1]; 10 min, 1 μM): 0.17 µM
Measured concentration of PEA (analyte) (in vitro [1]; 20 min, 1 μM): 0.29 µM
Measured concentration of PEA (analyte) (in vitro [1]; 30 min, 1 μM): 0.33 µM
Measured concentration of PEA (analyte) (in vitro [1]; 60 min, 1 μM): 0.32 µM
% Remaining of Initial (in vitro [1]; s9, 0 h, 1 μM): 100%
% Remaining of Initial (in vitro [1]; s9, 10 min, 1 μM): 3.2%
% Remaining of Initial (in vitro [1]; s9, 20 min, 1 μM): <1.0%
% Remaining of Initial (in vitro [1]; s9, 0.5 h, 1 μM): <1.0%
% Remaining of Initial (in vitro [1]; s9, 1 h, 1 μM): <1.0%
microsomal CLint at 1 μM (in vitro [1]; s9, CLint): > 69.3 µL/min/mg
half-life at 1 μM (in vitro [1]; s9, Half-life): < 0.167 h
Measured concentration of PEA (analyte) (in vitro [2]; 0 min, 1 μM): 0 µM
Measured concentration of PEA (analyte) (in vitro [2]; 10 min, 1 μM): 0.10 µM
Measured concentration of PEA (analyte) (in vitro [2]; 20 min, 1 μM): 0.17 µM
Measured concentration of PEA (analyte) (in vitro [2]; 30 min, 1 μM): 0.18 µM
Measured concentration of PEA (analyte) (in vitro [2]; 60 min, 1 μM): 0.26 µM
% Remaining of Initial (in vitro [2]; s9, 0 h, 1 μM): 100%
% Remaining of Initial (in vitro [2]; s9, 10 min, 1 μM): 2.0%
% Remaining of Initial (in vitro [2]; s9, 20 min, 1 μM): <1.0%
% Remaining of Initial (in vitro [2]; s9, 0.5 h, 1 μM): <1.0%
% Remaining of Initial (in vitro [2]; s9, 1 h, 1 μM): <1.0%
microsomal CLint at 1 μM (in vitro [2]; s9, CLint): > 69.3 µL/min/mg
half-life at 1 μM (in vitro [2]; s9, Half-life): < 0.167 h
Measured concentration of PEA (analyte) (in vitro [3]; 0 min, 1 μM): 0 µM
Measured concentration of PEA (analyte) (in vitro [3]; 10 min, 1 μM): 0.20 µM
Measured concentration of PEA (analyte) (in vitro [3]; 20 min, 1 μM): 0.28 µM
Measured concentration of PEA (analyte) (in vitro [3]; 30 min, 1 μM): 0.34 µM
Measured concentration of PEA (analyte) (in vitro [3]; 60 min, 1 μM): 0.38 µM
% Remaining of Initial (in vitro [3]; s9, 0 h, 1 μM): 100%
% Remaining of Initial (in vitro [3]; s9, 10 min, 1 μM): <1.0%
% Remaining of Initial (in vitro [3]; s9, 20 min, 1 μM): <1.0%
% Remaining of Initial (in vitro [3]; s9, 0.5 h, 1 μM): <1.0%
% Remaining of Initial (in vitro [3]; s9, 1 h, 1 μM): <1.0%
microsomal CLint at 1 μM (in vitro [3]; s9, CLint): > 691 µL/min/mg
half-life at 1 μM (in vitro [3]; s9, Half-life): < 0.0167 h
Measured concentration of PEA (analyte) (in vitro [4]; 0 min, 1 μM): 0.042 µM
Measured concentration of PEA (analyte) (in vitro [4]; 10 min, 1 μM): 0.50 µM
Measured concentration of PEA (analyte) (in vitro [4]; 20 min, 1 μM): 0.57 µM
Measured concentration of PEA (analyte) (in vitro [4]; 30 min, 1 μM): 0.54 µM
Measured concentration of PEA (analyte) (in vitro [4]; 60 min, 1 μM): 0.68 µM
% Remaining of Initial (in vitro [4]; s9, 0 h, 1 μM): 100%
% Remaining of Initial (in vitro [4]; s9, 10 min, 1 μM): 1.7%
% Remaining of Initial (in vitro [4]; s9, 20 min, 1 μM): <1.0%
% Remaining of Initial (in vitro [4]; s9, 0.5 h, 1 μM): <1.0%
% Remaining of Initial (in vitro [4]; s9, 1 h, 1 μM): <1.0%
microsomal CLint at 1 μM (in vitro [4]; s9, CLint): > 69.3 µL/min/mg
half-life at 1 μM (in vitro [4]; s9, Half-life): < 0.167 h

CCCCC/C=C\C/C=C\CCCCCCCC(=O)OCCNC(=O)CCCCCCCCCCCCCCC [Compound I-6]
Concentration (μM) of analyte PEA, 0 min (in vitro [1]; 0 min, 1 μM): 0.0089 µM
Concentration (μM) of analyte PEA, 10 min (in vitro [1]; 10 min, 1 μM): 0.023 µM
Concentration (μM) of analyte PEA, 20 min (in vitro [1]; 20 min, 1 μM): 0.043 µM
Concentration (μM) of analyte PEA, 30 min (in vitro [1]; 30 min, 1 μM): 0.056 µM
Concentration (μM) of analyte PEA, 60 min (in vitro [1]; 60 min, 1 μM): 0.072 µM
% Remaining of Initial (n = 1), 0 min (in vitro [1]; s9, 0 h, 1 μM): 100%
% Remaining of Initial (n = 1), 10 min (in vitro [1]; s9, 10 min, 1 μM): 109%
% Remaining of Initial (n = 1), 20 min (in vitro [1]; s9, 20 min, 1 μM): 103%
% Remaining of Initial (n = 1), 30 min (in vitro [1]; s9, 0.5 h, 1 μM): 82%
% Remaining of Initial (n = 1), 60 min (in vitro [1]; s9, 1 h, 1 μM): 70%
microsomal CLint at 1 μM (in vitro [1]; s9, CLint (mL/min/mg protein)): < 11.6 µL/min/mg
microsomal CLint at 1 μM (in vitro [1]; [5]): 6.82 µL/min/mg
half-life at 1 μM (in vitro [1]; s9, Half-life (min)): > 1 h
half-life at 1 μM (in vitro [1]; [6]): 1.7 h
Concentration (μM) of analyte PEA, 0 min (in vitro [2]; 0 min, 1 μM): 0.12 µM
Concentration (μM) of analyte PEA, 10 min (in vitro [2]; 10 min, 1 μM): 0.14 µM
Concentration (μM) of analyte PEA, 20 min (in vitro [2]; 20 min, 1 μM): 0.17 µM
Concentration (μM) of analyte PEA, 30 min (in vitro [2]; 30 min, 1 μM): 0.15 µM
Concentration (μM) of analyte PEA, 60 min (in vitro [2]; 60 min, 1 μM): 0.17 µM
% Remaining of Initial (n = 1), 0 min (in vitro [2]; s9, 0 h, 1 μM): 100%
% Remaining of Initial (n = 1), 10 min (in vitro [2]; s9, 10 min, 1 μM): 62%
% Remaining of Initial (n = 1), 20 min (in vitro [2]; s9, 20 min, 1 μM): 69%
% Remaining of Initial (n = 1), 30 min (in vitro [2]; s9, 0.5 h, 1 μM): 61%
% Remaining of Initial (n = 1), 60 min (in vitro [2]; s9, 1 h, 1 μM): 53%
microsomal CLint at 1 μM (in vitro [2]; s9, CLint (mL/min/mg protein)): < 11.6 µL/min/mg
microsomal CLint at 1 μM (in vitro [2]; [5]): 10.5 µL/min/mg
half-life at 1 μM (in vitro [2]; s9, Half-life (min)): > 1 h
half-life at 1 μM (in vitro [2]; [6]): 1.1 h
Concentration (μM) of analyte PEA, 0 min (in vitro [3]; 0 min, 1 μM): 0.069 µM
Concentration (μM) of analyte PEA, 10 min (in vitro [3]; 10 min, 1 μM): 0.088 µM
Concentration (μM) of analyte PEA, 20 min (in vitro [3]; 20 min, 1 μM): 0.094 µM
Concentration (μM) of analyte PEA, 30 min (in vitro [3]; 30 min, 1 μM): 0.10 µM
Concentration (μM) of analyte PEA, 60 min (in vitro [3]; 60 min, 1 μM): 0.11 µM
% Remaining of Initial (n = 1), 0 min (in vitro [3]; s9, 0 h, 1 μM): 100%
% Remaining of Initial (n = 1), 10 min (in vitro [3]; s9, 10 min, 1 μM): 78%
% Remaining of Initial (n = 1), 20 min (in vitro [3]; s9, 20 min, 1 μM): 92%
% Remaining of Initial (n = 1), 30 min (in vitro [3]; s9, 0.5 h, 1 μM): 79%
% Remaining of Initial (n = 1), 60 min (in vitro [3]; s9, 1 h, 1 μM): 59%
microsomal CLint at 1 μM (in vitro [3]; s9, CLint (mL/min/mg protein)): < 11.6 µL/min/mg
microsomal CLint at 1 μM (in vitro [3]; [5]): 7.65 µL/min/mg
half-life at 1 μM (in vitro [3]; s9, Half-life (min)): > 1 h
half-life at 1 μM (in vitro [3]; [6]): 1.52 h
Concentration (μM) of analyte PEA, 0 min (in vitro [4]; 0 min, 1 μM): 0.26 µM
Concentration (μM) of analyte PEA, 10 min (in vitro [4]; 10 min, 1 μM): 0.42 µM
Concentration (μM) of analyte PEA, 20 min (in vitro [4]; 20 min, 1 μM): 0.38 µM
Concentration (μM) of analyte PEA, 30 min (in vitro [4]; 30 min, 1 μM): 0.35 µM
Concentration (μM) of analyte PEA, 60 min (in vitro [4]; 60 min, 1 μM): 0.36 µM
% Remaining of Initial (n = 1), 0 min (in vitro [4]; s9, 0 h, 1 μM): 100%
% Remaining of Initial (n = 1), 10 min (in vitro [4]; s9, 10 min, 1 μM): 54%
% Remaining of Initial (n = 1), 20 min (in vitro [4]; s9, 20 min, 1 μM): 53%
% Remaining of Initial (n = 1), 30 min (in vitro [4]; s9, 0.5 h, 1 μM): 45%
% Remaining of Initial (n = 1), 60 min (in vitro [4]; s9, 1 h, 1 μM): 38%
microsomal CLint at 1 μM (in vitro [4]; s9, CLint (mL/min/mg protein)): 20.1 µL/min/mg
half-life at 1 μM (in vitro [4]; s9, Half-life (min)): 0.567 h
